Experimental data reported in patent publication US20220264877A1, “MICROBIOCIDAL PICOLINAMIDE DERIVATIVES” (SYNGENTA CROP PROTECTION AG, priority 2019, published 2022).

Legend:
[1] = test system: Botryotinia fuckeliana (Botrytis cinerea); assay: Botryotinia fuckeliana (Botrytis cinerea) / liquid culture (gray mould); assay type: cell-based; conditions: 200 ppm in the formulation, Vogels broth, 24° C., 3-4 days after application, vs untreated, read-out: disease control (inhibition of growth determined photometrically)
Description: (§1) Botryotinia fuckeliana (Botrytis cinerea)/Liquid Culture (Gray Mould) Conidia of the fungus from cryogenic storage are directly mixed into nutrient broth (Vogels broth). After placing a (DMSO) solution of test compound into a microtiter plate (96-well format), the nutrient broth containing the fungal spores is added. The test plates are incubated at 24° C. and the inhibition of growth is determined photometrically 3-4 days after application.

[2] = test system: Monographella nivalis (Microdochium nivale); assay: Monographella nivalis (Microdochium nivale) / liquid culture (foot rot cereals); assay type: cell-based; conditions: 200 ppm in the formulation, PDB potato dextrose broth, 24° C., 4-5 days after application, vs untreated, read-out: disease control (inhibition of growth determined photometrically)
Description: as §1, with “Monographella nivalis (Microdochium nivale)/liquid culture (foot rot cereals)” for “Botryotinia fuckeliana (Botrytis cinerea)/Liquid Culture (Gray Mould)”, “(PDB potato dextrose” for “(Vogels”, “4-5” for “3-4”

[3] = test system: Mycosphaerella arachidis (Cercospora arachidicola); assay: Mycosphaerella arachidis (Cercospora arachidicola) / liquid culture (early leaf spot); assay type: cell-based; conditions: 200 ppm in the formulation, PDB potato dextrose broth, 24° C., 4-5 days after application, vs untreated, read-out: disease control (inhibition of growth determined photometrically)
Description: as §1, with “Mycosphaerella arachidis (Cercospora arachidicola)/Liquid” for “Botryotinia fuckeliana (Botrytis cinerea)/Liquid”, “(Early Leaf Soot)” for “(Gray Mould)”, “(PDB potato dextrose” for “(Vogels”, “4-5” for “3-4”

[4] = test system: Mycosphaerella graminicola (Septoria tritici); assay: Mycosphaerella graminicola (Septoria tritici) / liquid culture (Septoria blotch); assay type: cell-based; conditions: Zymoseptoria tritici; 200 ppm in the formulation; PDB potato dextrose broth, 24° C., 4 to 5 days after application, vs untreated; read-out: disease control (inhibition of growth determined photometrically)
Description: as §1, with “Mycosphaerella graminicola (Septoria tritici)/Liquid” for “Botryotinia fuckeliana (Botrytis cinerea)/Liquid”, “(Septoria Blotch)” for “(Gray Mould)”, “(PDB potato dextrose” for “(Vogels”, “4 to 5” for “3-4”

[5] = test system: Plasmopara viticola; assay type: in vivo; conditions: 200 ppm in the formulation; grape vine leaf disks, inoculated 1 day after application, assessed 6 to 8 days after application, vs untreated
[6] = test system: Pythium ultimum; assay: Pythium ultimum / liquid culture (seedling damping off); assay type: cell-based; conditions: Globisporangium ultimum; 200 ppm in the formulation; PDB potato dextrose broth, 24° C., 2-3 days after application, vs untreated; read-out: disease control (inhibition of growth determined photometrically)
Description: Pythium ultimum/Liquid Culture (Seedling Damping Off) Mycelia fragments and oospores of a newly grown liquid culture of the fungus are directly mixed into nutrient broth (PDB potato dextrose broth). After placing a (DMSO) solution of test compound into a microtiter plate (96-well format), the nutrient broth containing the fungal mycelia/spore mixture is added. The test plates are incubated at 24° C. and the inhibition of growth is determined photometrically 2-3 days after application.

[7] = test system: Glomerella lagenarium (Colletotrichum lagenarium); assay: Glomerella lagenarium (Colletotrichum lagenarium) / liquid culture (anthracnose); assay type: cell-based; conditions: Colletotrichum orbiculare; 200 ppm in the formulation; PDB potato dextrose broth, 24° C., 3 to 4 days after application, vs untreated; read-out: disease control (inhibition of growth measured photometrically)
Description: as §1, with “Glomerella lagenarium (Colletotrichum lagenarium)/Liquid” for “Botryotinia fuckeliana (Botrytis cinerea)/Liquid”, “(Anthracnose)” for “(Gray Mould)”, “(PDB potato dextrose” for “(Vogels”, “measured” for “determined”, “3 to 4” for “3-4”

CC(C)C(=O)OCOc1c(N)ccnc1C(=O)N[C@@H](C)C(=O)OC(C)C(c1ccccc1)c1ccccc1 (stereo partly drawn) [I.y.33, [4-amino-2-[[(1S)-1-methyl-2-(1-methyl-2,2-diphenyl-ethoxy)-2-oxo-ethyl]carbamoyl]-3-pyridyl] oxymethyl 2-methylpropanoate]
inhibition at 200 ppm [1]: ≥ 80% | inhibition at 200 ppm [2]: ≥ 80% | inhibition at 200 ppm [3]: ≥ 80% | inhibition at 200 ppm [4]: ≥ 80%

CC(OC(=O)[C@H](C)NC(=O)c1nccc(NC=O)c1O)C(c1ccc(F)cc1)c1ccc(F)cc1 (stereo partly drawn) [Compound I.a.42, [2,2-bis(4-fluorophenyl)-1-methyl-ethyl] (2S)-2-[(4-formamido-3-hydroxy-pyridine-2-carbonyl)amino] propanoate]
inhibition at 200 ppm [1]: ≥ 80% | inhibition at 200 ppm [2]: ≥ 80% | inhibition at 200 ppm [3]: ≥ 80% | inhibition at 200 ppm [4]: ≥ 80% | disease control [5]: at least 80% | inhibition at 200 ppm [6]: ≥ 80% | melting point: 101 to 113 °C

CC(C)C(=O)OCOc1c(NC=O)ccnc1C(=O)N[C@@H](C)C(=O)OC(C)C(c1ccc(F)cc1)c1ccc(F)cc1 (stereo partly drawn) [Compound I.k.42, [2-[[(1S)-2-[2,2-bis(4-fluorophenyl)-1-methyl-ethoxy]-1-methyl-2-oxo-ethyl]carbamoyl]-4-formamido-3-pyridyl]oxymethyl 2-methylpropanoate]
inhibition at 200 ppm [1]: ≥ 80% | inhibition at 200 ppm [7]: ≥ 80% | inhibition at 200 ppm [2]: ≥ 80% | inhibition at 200 ppm [3]: ≥ 80% | inhibition at 200 ppm [4]: ≥ 80%

CC(OC(=O)[C@H](C)NC(=O)c1nccc(N)c1O)C(c1ccc(F)cc1)c1ccc(F)cc1 (stereo partly drawn) [I.w.42, [2,2-bis(4-fluorophenyl)-1-methyl-ethyl] (2S)-2-[(4-amino-3-hydroxy-pyridine-2-carbonyl)amino]propanoate]
inhibition at 200 ppm [1]: ≥ 80% | inhibition at 200 ppm [7]: ≥ 80% | inhibition at 200 ppm [2]: ≥ 80% | inhibition at 200 ppm [3]: ≥ 80% | inhibition at 200 ppm [4]: ≥ 80%

CC(C)C(=O)OCOc1c(N)ccnc1C(=O)N[C@@H](C)C(=O)OC(C)C(c1ccc(F)cc1)c1ccc(F)cc1 (stereo partly drawn) [I.y.42, [4-amino-2-[[(1S)-2-[2,2-bis(4-fluorophenyl)-1-methyl-ethoxy]-1-methyl-2-oxo-ethyl]carbamoyl]-3-pyridyl]oxymethyl 2-methylpropanoate]
inhibition at 200 ppm [1]: ≥ 80% | inhibition at 200 ppm [2]: ≥ 80% | inhibition at 200 ppm [3]: ≥ 80% | inhibition at 200 ppm [4]: ≥ 80%

CC(C)C(=O)OCOc1c(NC=O)ccnc1C(=O)N[C@@H](C)C(=O)OC(C)C(c1ccccc1)c1ccccc1 (stereo partly drawn) [Compound I.k.33, [4-formamido-2-[[(1S)-1-methyl-2-(1-methyl-2,2-diphenyl-ethoxy)-2-oxo-ethyl]carbamoyl]-3-pyridyl]oxymethyl 2-methylpropanoate]
inhibition at 200 ppm [1]: ≥ 80% | inhibition at 200 ppm [7]: ≥ 80% | inhibition at 200 ppm [2]: ≥ 80% | inhibition at 200 ppm [3]: ≥ 80% | inhibition at 200 ppm [4]: ≥ 80%
